Earlier results on one molecule are cited in patent publication US20250049963A1, “GLYCOSYLATED DENDRIMERS FOR TARGETED INTRACELLULAR DELIVERY” (The Johns Hopkins University, priority 2021, published 2025).

Molecules are shown by their SMILES.

For this data set, the target named is T1, GLUT2 (Homo sapiens, UniProt P11168).
T1 sequence (P11168 1-524): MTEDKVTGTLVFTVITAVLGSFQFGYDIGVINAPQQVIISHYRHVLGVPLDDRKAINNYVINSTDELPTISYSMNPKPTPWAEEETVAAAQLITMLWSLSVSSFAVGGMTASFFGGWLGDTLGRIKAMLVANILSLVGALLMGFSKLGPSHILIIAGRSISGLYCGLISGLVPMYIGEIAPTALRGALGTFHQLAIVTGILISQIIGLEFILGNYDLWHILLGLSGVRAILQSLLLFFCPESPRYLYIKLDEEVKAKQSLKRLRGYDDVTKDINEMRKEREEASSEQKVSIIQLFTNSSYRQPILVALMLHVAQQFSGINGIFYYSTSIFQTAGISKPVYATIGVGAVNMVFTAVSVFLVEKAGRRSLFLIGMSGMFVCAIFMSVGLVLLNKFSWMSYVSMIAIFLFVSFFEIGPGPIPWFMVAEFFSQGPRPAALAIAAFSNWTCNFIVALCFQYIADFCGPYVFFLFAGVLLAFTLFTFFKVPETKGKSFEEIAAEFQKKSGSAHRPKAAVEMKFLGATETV
The conditions noted are these: cited from earlier work.

Turning to `NC1C(O)[C@H](O)C(CO)O[C@@H]1O` (stereo partly shown) [GlcN, glucosamine], the “affinity of GLUT2 for GlcN relative to glucose” value is recorded as around 20 fold.
